Laboratory results published in patent publication US8853228B2, “Heterocyclic analogs of propargyl-linked inhibitors of dihydrofolate reductase” (University of Connecticut, priority 2011, dated 2014).
≈ marks a conversion by molar mass, not a printed value.

Assays:
hDHFR = hDHFR (Homo sapiens (Human), UniProt P00374); assay: hDHFR enzyme inhibition assay; type: biochemical; conditions: Table 5; average of at least three measurements; read-out: IC50 human
Method: hDHFR: The gene for hDHFR was amplified using PCR from cDNA obtained from ATCC. The gene was inserted in a pET41 vector with a C-terminal histidine tag for affinity chromatography. The resulting construct was verified by sequencing. The hDHFR protein was expressed in E. coli and purified using a nickel affinity column.
Enzyme and inhibitor were allowed to incubate for 5 min before adding dihydrofolate to initiate the reaction. Enzyme assays were performed at least four times. IC50 values and their standard deviations were calculated in the presence of varying concentrations of inhibitor near the IC50 concentration.
(§1) Enzyme inhibition assays were performed by monitoring the rate of NADPH oxidation by the DHFR enzyme at an absorbance of 340 nm. Assays were performed in the presence of saturating concentrations of NADPH and initiated with dihydrofolate. All assays were completed at 25° C. in a buffer containing 20 mM TES pH 7.0, 50 mM KCl, 10 mM 2-mercaptoethanol, 0.5 mM EDTA and 1 mg/mL BSA. Inhibition was measured at least three times with inhibitor concentrations near the IC50 value and the average IC50 value is reported with a standard deviation.

S. aureus DHFR = S. aureus DHFR (Staphylococcus aureus, UniProt P0A017); type: biochemical; conditions: for Selectivity (h/Sa): IC50 (human)/IC50 (pathogen); for IC50: average of at least three measurements
Method: as §1

S. pyogenes DHFR = S. pyogenes DHFR (Streptococcus pyogenes, UniProt Q9A091); assay: S. pyogenes DHFR enzyme inhibition assay; type: biochemical; conditions: for Selectivity (h/Sp): IC50 (human)/IC50 (pathogen); for IC50: average of at least three measurements
Sequence of S. pyogenes DHFR (Q9A091 1-165): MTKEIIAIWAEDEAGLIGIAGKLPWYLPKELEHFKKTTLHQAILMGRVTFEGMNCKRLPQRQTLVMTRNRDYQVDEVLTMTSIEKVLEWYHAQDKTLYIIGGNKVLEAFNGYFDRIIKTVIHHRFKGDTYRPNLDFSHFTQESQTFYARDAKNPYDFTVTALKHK
Method: as §1

S. aureus 13709 (MRSA) = assay: Antibacterial MIC, broth microdilution with Alamar Blue; type: cell-based, Staphylococcus aureus; conditions: for Selectivity MRSA: IC50 (MCF10)/MIC (pathogen); for MIC MRSA: Table 6
Method: (§2) For susceptibility testing, 10 μL of glycerol stock was suspended in a 10 mL shake flask culture of chemically defined Isosensitest broth (Oxoid) supplemented with 2% w/v glucose. A sample of the shake flask culture was diluted to 1×10^6 cells/mL in media and added to 96-well test plates (100 μL per well) containing test compounds dispensed in DMSO (2 μL). After an incubation period (30° C.) determined from the strain specific doubling time, a 0.03% w/v aqueous solution of resazurin (10 μL) was added and the plates were allowed to incubate; each well was then scored for dye reduction.

Streptococcus pyogenes = assay: as above; type: cell-based; conditions: for Selectivity S. pyogenes: IC50 (MCF10)/MIC (pathogen); for MIC S. pyogenes: Table 6
Method: as §2

MCF-10 cells = assay: Mammalian cell toxicity, MCF-10; type: cell-based, human; conditions: cytotoxicity, Table 6
Method: (§3) Adherent cell lines were maintained in Eagle's Minimal Essential Media (Sigma-Aldrich, St. Louis, Mo., USA) with 2 mM glutamine and Earle's Balanced Salt Solution (HyClone, Logan, Utah, USA) adjusted to contain 1.5 g/L sodium bicarbonate, 0.1 mM non-essential amino acids, 1 mM sodium pyruvate and 10% fetal calf serum. Fetal calf serum used in these assays was lot matched throughout. […] Toxicity assays were conducted between passages 10-20. Target compound toxicity was measured by incubating the test compound with the cells for 4 h, washing the cells and finally treating the cells with Alamar Blue. After 12-24 h, the fluorescence of the reduced dye was measured. Fluorescence intensity as a function of test compound concentration was fit to the Fermi equation, using non-linear least squares regression analysis, to estimate IC50 values.

HepG2 cells = assay: Mammalian cell toxicity, HepG2; type: cell-based; conditions: cytotoxicity, Table 6
Method: as §3

Sequence of hDHFR (P00374 whole entry): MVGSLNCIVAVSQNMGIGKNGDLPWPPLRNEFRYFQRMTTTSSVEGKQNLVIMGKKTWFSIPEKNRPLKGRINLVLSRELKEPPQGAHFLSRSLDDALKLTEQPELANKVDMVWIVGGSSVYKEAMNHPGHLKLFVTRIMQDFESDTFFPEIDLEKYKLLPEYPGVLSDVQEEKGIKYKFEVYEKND

Structure (SMILES) | IC50 (hDHFR) | Selectivity (h/Sa) (S. aureus DHFR) | IC50 (S. aureus DHFR) | improvement in potency against S. aureus DHFR (S. aureus DHFR; relative to compound 140) | Selectivity (h/Sp) (S. pyogenes DHFR) | IC50 (S. pyogenes DHFR) | Selectivity MRSA (S. aureus 13709 (MRSA)) | MIC MRSA (S. aureus 13709 (MRSA)) | Selectivity S. pyogenes (Streptococcus pyogenes) | MIC S. pyogenes (Streptococcus pyogenes) | IC50 (MCF-10 cells) | IC50 (HepG2 cells)
CCc1nc(N)nc(N)c1C#CCc1cc(-c2ccccc2)ccc1OC [Compound 142] | 300 ± 10 nM | 125 | 2.4 ± 0.2 nM | 18 fold | 51 | 5.9 ± 0.2 nM | 372 | 0.18 µg/mL (≈ 0.502 µM) | 11,167 | 0.006 µg/mL (≈ 0.0167 µM) | 67000 nM | 
CCc1nc(N)nc(N)c1C#CCc1cccc(-c2cncnc2)c1 [Compound 155] | 160 ± 13 nM | 5 | 35 ± 1.1 nM |  | 7 | 23 ± 1.2 nM | 3,333 | 0.15 µg/mL (≈ 0.454 µM) | 26,316 | 0.019 µg/mL (≈ 0.0575 µM) | > 500000 nM | 
CCc1nc(N)nc(N)c1C#CCc1cccc(-c2ccccc2)c1 [Compound 143] | 290 ± 36 nM | 10 | 28 ± 1.7 nM |  | 11 | 26 ± 1.7 nM | 45 | 0.71 µg/mL (≈ 2.16 µM) | 842 | 0.04 µg/mL (≈ 0.122 µM) | 32000 nM | 
COc1ccc(-c2ccccc2)cc1C(C)C#Cc1c(C)nc(N)nc1N (stereo not shown) [Compound 145] | 97 ± 10 nM | 1.3 | 75 ± 4 nM |  | 4 | 23 ± 1.5 nM | 53 | 0.716 µg/mL (≈ 2 µM) | 950 | 0.04 µg/mL (≈ 0.112 µM) | 38000 nM | 94000 nM
CCc1nc(N)nc(N)c1C#CCc1cc(OC)cc(-c2ccccc2)c1 [Compound 144] | 140 ± 1 nM | 2.4 | 59 ± 2.3 nM |  | 3 | 52 ± 1.7 nM | 2500 | 0.08 µg/mL (≈ 0.223 µM) | 603 | 0.33 µg/mL (≈ 0.921 µM) | 199000 nM | 
